Laboratory results reported in patent publication US9688702B2, “Alpha-amino boronic acid derivatives, selective immunoproteasome inhibitors” (Ares Trading S.A, priority 2011, dated 2017).
Structures can show the parent of a compound that is named as a salt.

Key:
[1] = target: Beta5 (purified human constitutive proteasome) (Homo sapiens, UniProt P28074); test: Determination of Beta5 activity (fluorescence intensity assay, Suc-LLVY-AMC); assay type: biochemical; conditions: purified human constitutive proteasome 1.0 nM, 40 μM Suc-LLVY-AMC, 37° C.
Method: Measurement of Beta5 inhibition is performed in 384 well format based on fluorescence intensity assay.
(§1) Purified human constitutive proteasome (1.0 nM) and serial diluted compounds in DMSO (range of concentrations from 10 μM to 38 pM) or controls (0.5% DMSO) are incubated for 30 minutes at 37° C. in assay buffer containing 50 mM Tris pH 7.4 and 0.03% SDS. The reaction is initiated by the addition of the fluorogenic peptide substrate, Suc-LLVY-AMC (Bachem 1-1395), at a concentration of 40 μM. After 90 minutes of incubation at 37° C., fluorescence intensity is measured at λex=350 nm and λem=450 nm with a fluorescence reader (BMG Pherastar reader or equivalent).

[2] = target: LMP7 (purified human immuno proteasome) (Homo sapiens, UniProt P28062); test: Determination of LMP7 activity (fluorescence intensity assay, Suc-LLVY-AMC); assay type: biochemical; conditions: for IC50: 40 μM Suc-LLVY-AMC, 37° C.
Method: Measurement of LMP7 inhibition is performed in 384 well format based on fluorescence intensity assay.
as §1, with “immuno” for “constitutive”, “(0.5” for “(1.0”, “I-1395),” for “1-1395),”
as §1, with “immuno” for “constitutive”, “(0.25” for “(1.0”, “I-1395),” for “1-1395),”

[3] = purified human immuno proteasome 0.5 nM
[4] = purified human immuno proteasome 0.25 nM (examples 79, 80, 83, 84, 85, 87, 88, 89, 90, 91, 93, 94, 96, 97, 101 and 110)

Row | IC50 [1] | Selectivity LMP7 vs Beta5 [2] | IC50 [2, 3] | IC50 [2, 4] | SMILES
1 | 50 to 500 nM | +++ (+++: Selectivity > 30) | < 50 nM | – | CCc1cccc(C[C@H](NC(=O)CCn2cc(-c3ccccc3OC)nn2)B(O)O)c1 [Example 73, (R)-(2-(3-ethylphenyl)-1-(3-(4-(2-methoxyphenyl)-1H-1,2,3-triazol-1-yl)propanamido)ethyl)boronic acid]
2 | < 50 nM | ++ (++: 10 < Selectivity < 30) | – | < 50 nM | O=C(CCn1cnc2ccccc21)N[C@@H](Cc1ccc2ccccc2c1)B(O)O [Example 97, (R)-(1-(3-(1H-benzo[d]imidazol-1-yl)propanamido)-2-(naphthalen-2-yl)ethyl)boronic acid]
3 | > 5000 nM | +++ (+++: Selectivity > 30) | 50 to 500 nM | – | CCc1cccc(C[C@H](NC(=O)CCC(=O)c2ccccc2)B(O)O)c1 [Example 6, {(1R)-2-(3-ethylphenyl)-1-[(4-oxo-4-phenylbutanoyl)amino]ethyl}boronic acid]
4 | > 5000 nM | – | 500 to 5000 nM | – | COc1ccccc1C(=O)CCC(=O)N[C@@H](Cc1ccsc1)B(O)O [Example 12, [(1R)-1-{[4-(2-methoxyphenyl)-4-oxobutanoyl]amino}-2-(3-thienyl)ethyl]boronic acid]
5 | > 5000 nM | – | 500 to 5000 nM | – | O=C(N[C@@H](Cc1ccsc1)B(O)O)[C@H]1CCCC[C@@H]1C(=O)c1ccccc1 (racemic) [Example 2, [(1R)-1-({[(1RS,2RS)-2-benzoylcyclohexyl]carbonyl}amino)-2-(3-thienyl)ethyl]boronic acid]
6 | 50 to 500 nM | ++ (++: 10 < Selectivity < 30) | < 50 nM | – | O=C(N[C@@H](Cc1ccsc1)B(O)O)[C@H](Cc1ccccc1)Cc1cn(-c2ccccc2)nn1 [Example 62, ((R)-1-((R)-2-benzyl-3-(1-phenyl-1H-1,2,3-triazol-4-yl)propanamido)-2-(thiophen-3-yl)ethyl)boronic acid]
7 | 50 to 500 nM | ++ (++: 10 < Selectivity < 30) | < 50 nM | – | CCOc1cccc(C[C@H](NC(=O)CCn2cnc3ccccc32)B(O)O)c1 [Example 67, (R)-(1-(3-(1H-benzo[d]imidazol-1-yl)propanamido)-2-(3-ethoxyphenyl)ethyl)boronic acid]
8 | < 50 nM | ++ (++: 10 < Selectivity < 30) | – | < 50 nM | O=C(CCc1ccncc1)N[C@@H](Cc1coc2ccccc12)B(O)O [Example 93, (R)-(2-(benzofuran-3-yl)-1-(3-(pyridin-4-yl)propanamido)ethyl)boronic acid hydrochloride]
9 | 500 to 5000 nM | +++ (+++: Selectivity > 30) | 50 to 500 nM | – | O=C(CCc1noc(-c2ccccc2)n1)N[C@@H](Cc1cccc(C(F)(F)F)c1)B(O)O [Example 39, {(1R)-1-{[3-(5-phenyl-1,2,4-oxadiazol-3-yl)propanoyl]amino}-2-[3-(trifluoromethyl)phenyl]ethyl}boronic acid]
10 | 50 to 500 nM | + (+: Selectivity < 10) | < 50 nM | – | O=C(CCn1nnc2ccccc21)N[C@@H](Cc1ccsc1)B(O)O [Example 35, [(1R)-1-{[3-(1H-1,2,3-benzotriazol-1-yl)propanoyl]amino}-2-(3-thienyl)ethyl]boronic acid]
11 | 50 to 500 nM | +++ (+++: Selectivity > 30) | < 50 nM | – | CCc1cccc(C[C@H](NC(=O)CCn2cc(-c3ccc(OC)cc3)nn2)B(O)O)c1 [Example 75, (R)-(2-(3-ethylphenyl)-1-(3-(4-(4-methoxyphenyl)-1H-1,2,3-triazol-1-yl)propanamido)ethyl)boronic acid]
12 | 500 to 5000 nM | ++ (++: 10 < Selectivity < 30) | 50 to 500 nM | – | CCc1cccc(C[C@H](NC(=O)CCC(=O)c2cccc(-c3ccccc3)c2)B(O)O)c1 [Example 19, [(1R)-1-[(4-biphenyl-3-yl-4-oxobutanoyl)amino]-2-(3-ethylphenyl)ethyl]boronic acid]
13 | 50 to 500 nM | ++ (++: 10 < Selectivity < 30) | < 50 nM | – | O=C(CCc1cn(-c2ccccc2)nn1)N[C@@H](Cc1ccc2ccccc2c1)B(O)O [Example 98, (R)-(2-(naphthalen-2-yl)-1-(3-(1-phenyl-1H-1,2,3-triazol-4-yl)propanamido)ethyl)boronic acid]
14 | < 50 nM | +++ (+++: Selectivity > 30) | – | < 50 nM | O=C(CCc1ccc(F)cc1)N[C@@H](Cc1coc2ccccc12)B(O)O [Example 80, (R)-(2-(benzofuran-3-yl)-1-(3-(4-fluorophenyl)propanamido)ethyl) boronic acid]
15 | 500 to 5000 nM | + (+: Selectivity < 10) | 50 to 500 nM | – | O=C(CCC(=O)c1ccc(-c2ccccc2)cc1)N[C@@H](Cc1ccsc1)B(O)O [Example 20, [(1R)-1-[(4-biphenyl-4-yl-4-oxobutanoyl)amino]-2-(3-thienyl)ethyl]boronic acid]
16 | 50 to 500 nM | + (+: Selectivity < 10) | < 50 nM | – | COc1ccc(C[C@H](NC(=O)CCn2cnc3ccccc32)B(O)O)cc1C(F)(F)F [Example 53, (R)-(1-(3-(1H-benzo[d]imidazol-1-yl)propanamido)-2-(4-methoxy-3-(trifluoromethyl)phenyl)ethyl)boronic acid]
17 | 500 to 5000 nM | +++ (+++: Selectivity > 30) | 50 to 500 nM | – | CCc1cccc(C[C@H](NC(=O)[C@H](CC(=O)c2ccccc2)c2cccc(Cl)c2)B(O)O)c1 (single isomer, unassigned) [Example 14]
18 | > 5000 nM | +++ (+++: Selectivity > 30) | 50 to 500 nM | – | O=C(CC(C(=O)N[C@@H](Cc1ccsc1)B(O)O)c1cccc(Cl)c1)c1ccccc1 (mixture of isomers) [Example 3, [(1R)-1-{[2-(RS)-(3-chlorophenyl)-4-oxo-4-phenylbutanoyl]amino}-2-(3-thienyl)ethyl]boronic acid]
19 | 500 to 5000 nM | ++ (++: 10 < Selectivity < 30) | 50 to 500 nM | – | COc1ccc(C(=O)CCC(=O)N[C@@H](Cc2ccc(OC(F)(F)F)cc2)B(O)O)cc1 [Example 43, (R)-(1-(4-(4-methoxyphenyl)-4-oxobutanamido)-2-(4-(trifluoromethoxy)phenyl)ethyl)boronic acid]
20 | < 50 nM | ++ (++: 10 < Selectivity < 30) | < 50 nM | – | Cn1ncc2cc(C[C@H](NC(=O)CCn3c(=O)sc4ccccc43)B(O)O)ccc21 [Example 102, (R)-(2-(1-methyl-1H-indazol-5-yl)-1-(3-(2-oxobenzo[d]thiazol-3(2H)-yl)propanamido)ethyl)boronic acid]
21 | 50 to 500 nM | ++ (++: 10 < Selectivity < 30) | – | < 50 nM | O=C(Cc1cnc[nH]1)N[C@@H](Cc1coc2ccccc12)B(O)O [Example 83, (R)-(1-(2-(1H-imidazol-5-yl)acetamido)-2-(benzofuran-3-yl)ethyl) boronic acid hydrochloride]
22 | 500 to 5000 nM | ++ (++: 10 < Selectivity < 30) | 50 to 500 nM | – | COc1ccc(C[C@H](NC(=O)CCc2noc(-c3ccccc3)n2)B(O)O)cc1C(F)(F)F [Example 56, (R)-(2-(4-methoxy-3-(trifluoromethyl)phenyl)-1-(3-(5-phenyl-1,2,4-oxadiazol-3-yl)propanamido)ethyl)boronic acid]
23 | 500 to 5000 nM | +++ (+++: Selectivity > 30) | < 50 nM | – | O=C(CCc1cn(-c2cccnc2)nn1)N[C@@H](Cc1ccc2ccccc2c1)B(O)O [Example 99, (R)-(2-(naphthalen-2-yl)-1-(3-(1-(pyridin-3-yl)-1H-1,2,3-triazol-4-yl)propanamido)ethyl)boronic acid]
24 | 500 to 5000 nM | +++ (+++: Selectivity > 30) | 50 to 500 nM | – | CCc1cccc(C[C@H](NC(=O)CCC(=O)c2ccc3ccccc3c2)B(O)O)c1 [Example 18, ((1R)-2-(3-ethylphenyl)-1-{[4-(2-naphthyl)-4-oxobutanoyl]amino}ethyl)boronic acid]
25 | – | – | 500 to 5000 nM | – | CCc1cccc(C[C@H](NC(C)=O)B(O)O)c1 [Example 77, (R)-(1-acetamido-2-(3-ethylphenyl)ethyl)boronic acid]
